Results reported in ChEMBL document CHEMBL1201862, “PubChem BioAssay data set” (2004).
The source made the active and inactive calls.

Assays:
Paired box protein Pax-8 = Paired box protein Pax-8 (Homo sapiens, UniProt Q06710); experiment: inhibitors of PAX8-driven TPO luciferase reporter, dose response, RMG-I cells, cherry-pick (AID 687027); type: functional, cell-based;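 note: luciferase reporter driven by Pax8 target thyroperoxidase promoter measured by SteadyGlo luminescence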
[1] = cytotoxicity toward NIH3T3 fibroblasts, dose response, counter-screen, cell-based, ATP luminescence, mouse fibroblasts (AID 2010); type: functional;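 note: cells exposed to compound for about 90 hours before reading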
cells [2] = type: functional, cell-based
[3] = inhibitors of SNCA 5'UTR-driven reporter translation, confirmation, H4 neuroglioma cells, luminescence (AID 1988); type: functional, cell-based
[4] = inhibitors of intracellular T. cruzi replication, confirmation, NIH3T3 host cells, beta-gal luminescence (AID 2044); type: functional, cell-based;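 note: intracellular parasites grown in NIH/3T3 mouse fibroblasts as host cells; luminescent beta-galactosidase reporter signal from transgenic T. cruzi replicating inside host cells; inhibitors lower the luminescence signal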
[5] = inhibitors of firefly luciferase expression or activity, dose response, H4 neuroglioma cells, luminescence (AID 1990); type: functional, cell-based
[6] = Luminescence Cell-Based Dose Response HTS to Identify Inhibitors of 5'UTR Stem-Loop Driven Prion Protein mRNA Translation in H4 Neuroglioblastoma Cells. [Related pubchem assays: 1827 (Project Summary), 1813 (Primary HTS)]; type: functional
[7] = inhibitors of SNCA 5'UTR-driven translation, confirmation, luminescence, H4 neuroglioblastoma cells, dose confirmation (AID 2454); type: functional, cell-based;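 note: H4 neuroglioblastoma cells carrying an alpha-synuclein 5'UTR luciferase reporter; potency for inhibition of the luciferase signal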
[8] = luciferase reporter signal reduction – luminescence, H4-C neuroglioblastoma cells, dose response (AID 2458); type: functional, cell-based;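 note: H4 neuroglioblastoma cells stably carrying a luciferase reporter gene fusion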
[9] = biological target: T1, Alkaline phosphatase, tissue-nonspecific isozyme (Homo sapiens, UniProt P05186)
T1 sequence (P05186 whole entry): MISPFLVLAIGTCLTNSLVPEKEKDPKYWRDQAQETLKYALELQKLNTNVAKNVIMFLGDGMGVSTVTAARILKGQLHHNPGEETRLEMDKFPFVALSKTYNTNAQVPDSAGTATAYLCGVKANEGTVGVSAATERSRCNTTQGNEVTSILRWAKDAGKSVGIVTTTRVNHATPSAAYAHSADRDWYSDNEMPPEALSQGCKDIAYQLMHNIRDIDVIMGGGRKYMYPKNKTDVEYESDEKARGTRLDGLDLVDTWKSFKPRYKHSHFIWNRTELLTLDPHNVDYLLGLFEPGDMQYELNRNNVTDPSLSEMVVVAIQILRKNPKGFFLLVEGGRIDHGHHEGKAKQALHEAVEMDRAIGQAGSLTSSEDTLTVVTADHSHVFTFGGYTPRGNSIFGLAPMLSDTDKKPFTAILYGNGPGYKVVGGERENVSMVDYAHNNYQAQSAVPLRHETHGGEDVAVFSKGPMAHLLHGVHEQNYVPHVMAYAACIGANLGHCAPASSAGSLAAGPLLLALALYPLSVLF

[10] = biological target: Peroxisome proliferator-activated receptor gamma/Nuclear receptor corepressor 2 (Homo sapiens, UniProt P37231+Q9Y618); type: functional
cells [11] = experiment: cells
Cytochrome P450 2C19 = Cytochrome P450 2C19 (Homo sapiens, UniProt P33261); experiment: Cytochrome panel assay with activity outcomes. Panel member name: p450-cyp2c19 Compounds with AC50 equal or less than 10 uM are considered active; type: functional; conditions: read-out: AC50
[12] = biological target: Photoreceptor-specific nuclear receptor (Homo sapiens, UniProt Q9Y5X4); type: functional;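 note: potency for compounds that break the NR2E3 corepressor complex and count as activators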
Major prion protein = Major prion protein (Homo sapiens, UniProt P04156); type: functional, cell-based
[13] = biological target: G-protein coupled receptor 55 (Homo sapiens, UniProt Q9Y2T6); experiment: GPR55 antagonists blocking LPI-driven arrestin recruitment, primary screen, imaging, U2OS, beta-arrestin-GFP, LPI agonist (AID 2013); type: functional;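 note: antagonist potency measured as reduced agonist-driven arrestin aggregation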
[14] = biological target: T2, Replicative DNA helicase DnaB (Mycobacterium tuberculosis, UniProt P9WMR3); experiment: DnaB intein splicing inhibitors, dose response, biochemical, cell-free fluorescence (AID 449749); type: functional
T2 sequence (P9WMR3 whole entry): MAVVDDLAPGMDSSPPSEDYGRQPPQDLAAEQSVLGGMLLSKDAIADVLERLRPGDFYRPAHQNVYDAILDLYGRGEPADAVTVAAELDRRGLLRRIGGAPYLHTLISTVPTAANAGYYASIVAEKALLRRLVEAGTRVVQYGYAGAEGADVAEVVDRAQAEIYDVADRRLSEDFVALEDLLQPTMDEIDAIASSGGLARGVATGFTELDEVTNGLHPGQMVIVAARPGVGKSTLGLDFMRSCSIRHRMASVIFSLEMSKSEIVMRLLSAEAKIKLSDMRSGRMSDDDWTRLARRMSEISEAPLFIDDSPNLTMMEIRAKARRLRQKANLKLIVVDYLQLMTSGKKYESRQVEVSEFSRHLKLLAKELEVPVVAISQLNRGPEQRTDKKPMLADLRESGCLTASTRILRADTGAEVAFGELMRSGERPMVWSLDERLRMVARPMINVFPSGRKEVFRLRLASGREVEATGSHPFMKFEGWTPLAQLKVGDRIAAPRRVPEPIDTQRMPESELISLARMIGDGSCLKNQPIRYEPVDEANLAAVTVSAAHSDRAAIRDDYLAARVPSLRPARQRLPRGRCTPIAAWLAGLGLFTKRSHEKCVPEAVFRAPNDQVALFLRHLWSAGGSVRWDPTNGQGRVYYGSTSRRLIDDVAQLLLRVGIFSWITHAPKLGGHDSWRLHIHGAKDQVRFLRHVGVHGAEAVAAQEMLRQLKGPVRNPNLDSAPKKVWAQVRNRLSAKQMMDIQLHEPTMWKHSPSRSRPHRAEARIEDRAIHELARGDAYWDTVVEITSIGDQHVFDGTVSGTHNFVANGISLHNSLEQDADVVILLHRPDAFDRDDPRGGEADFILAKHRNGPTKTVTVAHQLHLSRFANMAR

[15] = biological target: Sphingosine 1-phosphate receptor 4 (Homo sapiens, UniProt O95977); experiment: Fluorescence dose response cell-based high throughput screening assay for antagonists of the Sphingosine 1-Phosphate Receptor 4 (S1P4). [Related pubchem assays: 1524 (Confirmation in triplicates.), 1510 (Primary screen.)]; type: functional
[16] = biological target: Peroxisome proliferator-activated receptor gamma/Nuclear receptor coactivator 2 (Homo sapiens, UniProt P37231); experiment: (§1) TR-FRET dose response biochemical High Throughput Screening assay for agonists of the steroid receptor coactivator 2 (SRC-2) recruitment by the peroxisome proliferator-activated receptor gamma (PPAR gamma): non-selective agonists. [Related pubchem assays: 1297, 1032 ]; type: functional
[17] = biological target: T3, Kappa-type opioid receptor (Homo sapiens, UniProt P41145); type: functional
[18] = biological target: T3, Kappa-type opioid receptor; type: functional; remark: listed apart in the source
[19] = biological target: Peroxisome proliferator-activated receptor gamma/Nuclear receptor coactivator 3 (Homo sapiens, UniProt P37231); experiment: as §1, with “3 (SRC-3)” for “2 (SRC-2)”, “1301 (Confirmation screen.), 1048 (Primary screen.)]” for “1297, 1032 ]”; type: functional
[20] = Vero cell cytotoxicity, dose response, cytotoxicity control for Vif-APOBEC3G degradation inhibitor project, Vero cells (AID 1117358); type: functional; conditions: Human immunodeficiency virus 1, Vero
[21] = biological target: T4, Delta-type opioid receptor (Homo sapiens, UniProt P41143); experiment: HTS Image-Based Screen for Agonists of the DOR Receptor. [Related pubchem assays (depositor defined):AID1777, AID1786, AID2133]; type: functional
Mu-type opioid receptor = Mu-type opioid receptor (Homo sapiens, UniProt P35372); experiment: HTS Image-Based Screen for Agonists of the MOR Receptor. [Related pubchem assays (depositor defined):AID1777, AID1785, AID1786, AID2133]; type: functional;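 note: imaging of beta-arrestin GFP recruitment into spots after receptor activation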
Beta-galactosidase = Beta-galactosidase (Escherichia coli, UniProt Q8VNN2); type: functional
[22] = biological target: T4, Delta-type opioid receptor; experiment: HTS Image-Based Screen for Antagonists of the DOR Receptor. [Related pubchem assays (depositor defined):AID1777, AID1785, AID1786, AID2133]; type: functional
[23] = biological target: Peroxisome proliferator-activated receptor gamma/Nuclear receptor coactivator 1 (Homo sapiens, UniProt P37231); experiment: as §1, with “1 (SRC-1)” for “2 (SRC-2)”, “assays (depositor defined):AID1300, AID1808, AID504735, AID631]” for “assays: 1297, 1032 ]”; type: protein assay
[24] = biological target: Sphingosine 1-phosphate receptor 1 (Homo sapiens, UniProt P21453); type: functional;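 note: Tango beta-arrestin reporter U2OS cells stimulated with S1P near its EC80; inhibitor potency meaning antagonism of receptor activation by the natural agonist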
Protein RecA = biological target: T5, Protein RecA (Mycobacterium tuberculosis, UniProt P9WHJ3); experiment: Fluorescence Cell-Free Homogeneous Dose Retest to Identify Inhibitors of RecA-Intein Splicing Activity. [Related pubchem assays (depositor defined):AID2097, AID2223, AID489010, AID492950]; type: functional
T5 sequence (P9WHJ3 whole entry): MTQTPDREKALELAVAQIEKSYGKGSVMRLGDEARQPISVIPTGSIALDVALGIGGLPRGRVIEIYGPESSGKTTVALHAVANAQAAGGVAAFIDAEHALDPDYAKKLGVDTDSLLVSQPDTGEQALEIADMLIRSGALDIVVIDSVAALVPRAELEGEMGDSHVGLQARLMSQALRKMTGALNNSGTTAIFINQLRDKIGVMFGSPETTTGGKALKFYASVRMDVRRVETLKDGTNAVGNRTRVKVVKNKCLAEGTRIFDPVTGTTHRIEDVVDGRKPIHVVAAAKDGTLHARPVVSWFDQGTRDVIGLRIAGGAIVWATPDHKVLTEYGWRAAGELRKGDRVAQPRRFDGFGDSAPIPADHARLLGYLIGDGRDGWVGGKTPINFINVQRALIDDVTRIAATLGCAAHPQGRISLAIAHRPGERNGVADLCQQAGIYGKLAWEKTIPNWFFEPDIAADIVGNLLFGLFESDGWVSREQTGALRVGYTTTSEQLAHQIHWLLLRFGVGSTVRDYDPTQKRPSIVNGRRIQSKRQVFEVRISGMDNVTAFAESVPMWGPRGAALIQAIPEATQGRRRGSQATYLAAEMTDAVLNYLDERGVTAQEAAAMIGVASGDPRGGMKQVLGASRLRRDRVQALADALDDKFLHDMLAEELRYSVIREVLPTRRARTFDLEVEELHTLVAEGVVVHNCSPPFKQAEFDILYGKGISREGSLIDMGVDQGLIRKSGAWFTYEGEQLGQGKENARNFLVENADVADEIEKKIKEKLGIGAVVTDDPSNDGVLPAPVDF

INS1 = experiment: beta cell apoptosis inhibitors, cytokine rescue, dose response, luminescence, retest (AID 449756); type: functional, cell-based; conditions: Rattus norvegicus;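 note: cell death triggered by IL-1 beta plus TNF-alpha plus IFN-gamma mixture; protective hits raise ATP signal compared with cytokine alone wells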
[25] = microbe, parasite or virus in culture; type: functional; conditions: Mycobacterium tuberculosis

T4 sequence (P41143 whole entry): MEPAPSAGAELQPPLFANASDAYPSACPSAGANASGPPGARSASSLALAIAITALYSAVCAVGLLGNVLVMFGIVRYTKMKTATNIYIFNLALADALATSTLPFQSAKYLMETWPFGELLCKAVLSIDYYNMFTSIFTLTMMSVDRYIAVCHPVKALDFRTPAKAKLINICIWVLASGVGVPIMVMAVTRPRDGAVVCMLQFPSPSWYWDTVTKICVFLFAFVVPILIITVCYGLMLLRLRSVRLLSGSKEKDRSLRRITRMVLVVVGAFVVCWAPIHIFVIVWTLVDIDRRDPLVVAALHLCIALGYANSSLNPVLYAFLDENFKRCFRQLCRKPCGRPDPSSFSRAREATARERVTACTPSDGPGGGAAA
T3 sequence (P41145 whole entry): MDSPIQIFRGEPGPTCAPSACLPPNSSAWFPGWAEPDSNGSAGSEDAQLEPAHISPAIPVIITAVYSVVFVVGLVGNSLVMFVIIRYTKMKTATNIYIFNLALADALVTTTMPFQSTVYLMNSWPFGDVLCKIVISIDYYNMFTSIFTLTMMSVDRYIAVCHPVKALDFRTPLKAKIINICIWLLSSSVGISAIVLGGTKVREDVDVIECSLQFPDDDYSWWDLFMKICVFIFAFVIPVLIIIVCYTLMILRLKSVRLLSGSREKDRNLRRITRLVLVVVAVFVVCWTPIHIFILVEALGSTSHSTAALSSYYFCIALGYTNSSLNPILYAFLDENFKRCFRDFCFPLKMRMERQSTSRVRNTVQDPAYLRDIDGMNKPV
Chain of G-protein coupled receptor 55 (Q9Y2T6 whole entry): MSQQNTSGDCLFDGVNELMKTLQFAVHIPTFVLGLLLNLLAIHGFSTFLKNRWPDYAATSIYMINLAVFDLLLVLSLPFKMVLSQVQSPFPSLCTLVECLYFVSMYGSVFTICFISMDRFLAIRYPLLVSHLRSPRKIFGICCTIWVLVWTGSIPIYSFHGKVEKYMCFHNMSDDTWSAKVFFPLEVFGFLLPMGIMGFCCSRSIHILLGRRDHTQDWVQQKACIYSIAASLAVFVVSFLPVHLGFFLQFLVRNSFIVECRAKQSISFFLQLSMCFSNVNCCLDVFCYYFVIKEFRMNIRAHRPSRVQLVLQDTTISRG
Chain of Mu-type opioid receptor (P35372 whole entry): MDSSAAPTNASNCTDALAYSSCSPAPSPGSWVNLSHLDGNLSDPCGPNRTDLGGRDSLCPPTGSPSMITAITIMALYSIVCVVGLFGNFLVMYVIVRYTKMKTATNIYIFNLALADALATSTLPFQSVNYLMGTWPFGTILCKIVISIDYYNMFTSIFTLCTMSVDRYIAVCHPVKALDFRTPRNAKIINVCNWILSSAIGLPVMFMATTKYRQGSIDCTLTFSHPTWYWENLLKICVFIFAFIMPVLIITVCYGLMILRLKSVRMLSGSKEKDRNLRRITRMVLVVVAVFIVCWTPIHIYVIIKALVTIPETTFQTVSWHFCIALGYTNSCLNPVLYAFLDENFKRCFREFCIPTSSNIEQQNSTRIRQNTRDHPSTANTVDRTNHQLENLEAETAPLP
Chain of Paired box protein Pax-8 (Q06710 whole entry): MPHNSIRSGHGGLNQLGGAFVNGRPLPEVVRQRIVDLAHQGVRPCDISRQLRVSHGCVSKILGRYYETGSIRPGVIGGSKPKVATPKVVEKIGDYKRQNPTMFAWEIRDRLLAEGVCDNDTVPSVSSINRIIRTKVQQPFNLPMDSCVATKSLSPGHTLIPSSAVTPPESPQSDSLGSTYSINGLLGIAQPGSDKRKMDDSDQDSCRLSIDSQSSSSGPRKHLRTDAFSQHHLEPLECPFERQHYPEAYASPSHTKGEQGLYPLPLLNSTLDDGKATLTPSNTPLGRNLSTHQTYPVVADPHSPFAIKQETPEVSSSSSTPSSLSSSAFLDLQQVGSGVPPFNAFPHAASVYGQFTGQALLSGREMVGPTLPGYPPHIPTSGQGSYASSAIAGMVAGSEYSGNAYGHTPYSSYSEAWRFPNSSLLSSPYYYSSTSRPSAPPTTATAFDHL
Chain of Beta-galactosidase (Q8VNN2 whole entry): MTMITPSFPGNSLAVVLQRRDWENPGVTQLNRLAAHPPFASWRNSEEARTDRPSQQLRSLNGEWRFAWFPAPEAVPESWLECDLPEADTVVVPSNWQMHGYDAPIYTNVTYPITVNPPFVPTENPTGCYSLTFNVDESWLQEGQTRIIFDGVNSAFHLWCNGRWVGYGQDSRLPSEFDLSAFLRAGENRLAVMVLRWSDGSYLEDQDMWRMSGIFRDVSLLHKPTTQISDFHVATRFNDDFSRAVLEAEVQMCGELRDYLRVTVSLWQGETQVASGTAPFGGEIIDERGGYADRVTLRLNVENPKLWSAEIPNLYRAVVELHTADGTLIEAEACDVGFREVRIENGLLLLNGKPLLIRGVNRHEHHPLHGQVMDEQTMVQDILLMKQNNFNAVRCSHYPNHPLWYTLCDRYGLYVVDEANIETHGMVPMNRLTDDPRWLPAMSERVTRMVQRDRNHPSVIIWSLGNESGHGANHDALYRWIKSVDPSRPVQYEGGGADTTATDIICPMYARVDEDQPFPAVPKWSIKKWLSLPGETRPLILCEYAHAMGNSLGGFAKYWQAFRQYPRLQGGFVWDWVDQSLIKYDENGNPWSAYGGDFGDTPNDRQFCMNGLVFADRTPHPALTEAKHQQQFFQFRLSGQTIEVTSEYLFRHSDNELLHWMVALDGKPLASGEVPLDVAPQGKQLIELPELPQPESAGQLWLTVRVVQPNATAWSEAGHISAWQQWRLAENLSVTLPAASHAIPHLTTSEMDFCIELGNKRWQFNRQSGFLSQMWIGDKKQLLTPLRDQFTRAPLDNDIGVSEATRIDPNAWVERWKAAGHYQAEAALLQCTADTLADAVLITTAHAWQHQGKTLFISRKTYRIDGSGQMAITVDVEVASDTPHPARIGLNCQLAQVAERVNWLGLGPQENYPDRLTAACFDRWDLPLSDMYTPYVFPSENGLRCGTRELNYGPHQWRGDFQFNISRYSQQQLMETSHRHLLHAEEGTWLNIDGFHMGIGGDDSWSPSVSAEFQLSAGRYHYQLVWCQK
Chain of Photoreceptor-specific nuclear receptor (Q9Y5X4 whole entry): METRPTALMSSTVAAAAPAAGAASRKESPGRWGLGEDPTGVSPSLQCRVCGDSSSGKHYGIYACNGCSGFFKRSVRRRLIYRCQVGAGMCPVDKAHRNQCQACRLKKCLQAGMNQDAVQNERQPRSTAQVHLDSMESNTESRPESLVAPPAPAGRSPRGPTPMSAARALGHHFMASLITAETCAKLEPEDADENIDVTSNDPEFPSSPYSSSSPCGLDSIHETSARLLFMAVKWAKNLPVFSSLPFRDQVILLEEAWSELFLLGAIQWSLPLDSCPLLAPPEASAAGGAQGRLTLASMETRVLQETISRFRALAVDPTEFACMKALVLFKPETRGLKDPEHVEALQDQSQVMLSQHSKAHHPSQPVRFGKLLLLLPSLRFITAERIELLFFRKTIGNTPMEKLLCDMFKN
Chain of Sphingosine 1-phosphate receptor 4 (O95977 whole entry): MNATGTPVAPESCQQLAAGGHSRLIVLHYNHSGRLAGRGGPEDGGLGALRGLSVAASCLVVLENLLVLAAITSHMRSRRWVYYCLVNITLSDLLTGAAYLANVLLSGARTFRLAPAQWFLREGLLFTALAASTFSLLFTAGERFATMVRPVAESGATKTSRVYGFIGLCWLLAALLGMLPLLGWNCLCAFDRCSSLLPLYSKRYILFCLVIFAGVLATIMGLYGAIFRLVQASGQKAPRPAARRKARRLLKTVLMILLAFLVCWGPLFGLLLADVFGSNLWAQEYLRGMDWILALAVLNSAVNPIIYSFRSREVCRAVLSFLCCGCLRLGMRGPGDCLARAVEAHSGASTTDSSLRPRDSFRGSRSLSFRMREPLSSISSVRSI
Chain of Sphingosine 1-phosphate receptor 1 (P21453 whole entry): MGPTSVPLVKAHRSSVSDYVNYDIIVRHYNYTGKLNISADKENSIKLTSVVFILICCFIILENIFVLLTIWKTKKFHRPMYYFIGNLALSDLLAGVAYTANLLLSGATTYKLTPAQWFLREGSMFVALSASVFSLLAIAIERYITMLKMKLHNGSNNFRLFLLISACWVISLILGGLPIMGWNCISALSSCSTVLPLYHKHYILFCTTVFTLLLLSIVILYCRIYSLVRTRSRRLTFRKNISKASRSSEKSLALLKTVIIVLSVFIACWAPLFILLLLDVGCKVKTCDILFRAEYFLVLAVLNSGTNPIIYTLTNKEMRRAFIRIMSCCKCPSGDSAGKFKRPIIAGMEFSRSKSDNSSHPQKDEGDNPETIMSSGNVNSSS
Chain of Cytochrome P450 2C19 (P33261 whole entry): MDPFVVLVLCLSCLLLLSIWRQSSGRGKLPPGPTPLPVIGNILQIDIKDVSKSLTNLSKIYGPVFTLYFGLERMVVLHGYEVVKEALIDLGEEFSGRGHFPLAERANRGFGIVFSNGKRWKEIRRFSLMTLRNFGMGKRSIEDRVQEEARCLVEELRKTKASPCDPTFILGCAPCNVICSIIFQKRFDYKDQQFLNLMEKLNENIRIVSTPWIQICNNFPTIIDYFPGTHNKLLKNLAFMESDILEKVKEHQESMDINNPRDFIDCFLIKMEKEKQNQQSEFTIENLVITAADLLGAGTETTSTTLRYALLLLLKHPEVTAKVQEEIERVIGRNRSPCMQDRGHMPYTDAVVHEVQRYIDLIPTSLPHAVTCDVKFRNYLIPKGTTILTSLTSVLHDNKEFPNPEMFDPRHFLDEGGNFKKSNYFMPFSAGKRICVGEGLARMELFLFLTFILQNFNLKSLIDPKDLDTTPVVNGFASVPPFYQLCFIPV

In the case of `CC(=O)OC(C)(C)/C=C/C(=O)C(C)(O)C1[C@H](O)C[C@@]2(C)C3CC=C4C(CC[C@@H](O)C4(C)C)[C@]3(CO)C(=O)C[C@]12C` (stereo not given in full), the AC50 (Paired box protein Pax-8) is reported as < 0.26 µM (active), the EC50 [1] is reported as 8.65 µM (active) and the EC50 (cells [2]) is reported as 0.08 µM (active). The EC50 [3] was < 0.1 µM (active), the EC50 [4] was 0.33 µM (active) and the EC50 [5] was < 0.1 µM (active). The EC50 [6] was < 0.1 µM (active), the EC50 [7] was 0.082 µM (active) and the EC50 [8] was 0.083 µM (active).

With `CCOC1Cc2ccccc2N(C(N)=O)c2ccccc21` (stereo not given) the EC50 [9] was > 100 µM (not active).

With `CCc1c(C(=O)O)[nH]c2ccc(Br)cc12` the IC50 [10] was 7.33 µM (active), the IC50 (cells [11]) was > 138 µM (inactive) and the AC50 (Cytochrome P450 2C19) was 11.2 µM (inconclusive). The IC50 [12] was 6.41 µM (active) and the IC50 (Major prion protein) was 5.95 µM (active).

In the case of `O=C(OCn1ncc(Br)c(Br)c1=O)c1ccc(F)cc1`, the IC50 [13] is reported as 5.05 µM (active), the AC50 [14] is reported as 2.02 µM (active) and the IC50 [15] is reported as 1.66 µM (active). The EC50 [16] was 72.3 µM (not active), the IC50 [17] was 18.8 µM (active) and the IC50 [18] was 6.83 µM. The EC50 [19] was > 79.4 µM (not active), the CC50 [20] was 8.69 µM (active) and the EC50 [3] was > 120 µM (not active). The EC50 [21] was > 32 µM (inactive), the EC50 (Mu-type opioid receptor) was > 32 µM (inactive) and the EC50 [5] was > 120 µM (not active). The EC50 (Beta-galactosidase) was > 31.5 µM (inactive), the IC50 [22] was 10.3 µM (inactive) and the EC50 [6] was 5.79 µM (active). The EC50 [23] was > 79.4 µM (inactive), the IC50 [24] was 13.6 µM (not active) and the EC50 (Protein RecA) was 0.473 µM (active). The AC50 (INS1) was 4.94 µM (active) and the CC50 [25] was 9.1 µM (active).
